Patent publication US4588722A, “N-(4-piperidinyl) bicyclic condensed 2-imidazolamine derivatives” (priority 1984, dated 1986)
Counter-ions that a name gives are not always drawn. Like-named read-outs stand apart in the source and are kept apart here.

System: compound 48/80-induced lethality in rats
Assay: Protection of rats from compound 48/80-induced lethality
Format: in vivo, rat (male, inbred Wistar strain)
Conditions: Rattus norvegicus, read-out: Compound 48/80 lethality test in rats-ED50
Excerpt: PROTECTION OF RATS FROM COMPOUND 48/80-INDUCED LETHALITY
Compound 48/80, a mixture of oligomers obtained by condensation of 4-methoxy-N-methylbenzeneethanamine and formaldehyde has been described as a potent histamine releasing agent (Int. Arch. Allergy, 13, 336 (1958)). The protection from compound 48/80-induced lethal circulatory collapse appears to be a simple way of evaluating quantitatively the antihistaminic activity of test compounds. Male rats of an inbred Wistar strain, weighing 240-260 g were used in the experiment. After overnight starvation the rats were transferred to conditioned laboratories (temp.=21±1° C., relative humidity=65±5%). The rats were treated subcutaneously or orally with a test compound or with the solvent (NaCl solution, 0.9%). One hour after treatment there was injected intravenously compound 48/80, freshly dissolved in water, at a dose of 0.5 mg/kg (0.2 ml/100 g of body weight). In control experiments, wherein 250 solvent-treated animals were injected with the standard dose of compound 48/80, not more than 2.8% of the animals survived after 4 hours. Survival after 4 hours is therefore considered to be a safe criterion of a protective effect of drug administration.
Said ED50 -values are the values in mg/kg body weight at which the tested compounds protect 50% of the tested animals against compound 48/80-induced lethality.

[1] = test compound subcutaneously or orally (route of each value not given) 1 hour before compound 48/80 0.5 mg/kg intravenously, dose protecting 50% of animals, survival after 4 hours

| Compound | ED50 [1] [mg/kg] | ED50 (4 h) [mg/kg] |
| --- | --- | --- |
| Fc1ccc(Cn2c(NC3CCN(CCNC(=S)Nc4ccccc4)CC3)nc3ccccc32)cc1 [Compound 40, N-[2-[4-[[1-[(4-fluorophenyl)methyl]-1H-benzimidazol-2-yl]amino]-1-piperidinyl]ethyl]-N'phenylthiourea] | 0.16 | – |
| O=c1cc[nH]c(=O)n1CCN1CCC(Nc2nc3ccccc3n2Cc2ccc(F)cc2)CC1 [Compound 5, 3-[2-[4-[[1-[(4-fluorophenyl)methyl]-1H-benzimidazol-2-yl]amino]-1-piperidinyl]ethyl]-2,4-(1H,3H)-pyrimidinedione] | 0.08 | – |
| Fc1ccc(Cn2c(NC3CCN(Cc4ccc(CSCCNc5ncccn5)o4)CC3)nc3ccccc32)cc1 [Compound 50] | 0.16 | – |
| CS(=O)(=O)Nc1ccc(CCN2CCC(Nc3nc4ccccc4n3Cc3ccc(F)cc3)CC2)cc1 [Compound 53, N-4-[2-[4-[[1-[(4-fluorophenyl)methyl]-1H-benzimidazol-2-yl]amino]-1-piperidinyl]ethyl] methanesulfonamide monohydrate] | 0.16 | – |
| O=CNCCN1CCC(Nc2nc3ccccc3n2Cc2ccc(F)cc2)CC1 [Compound 45, N-[2-[4-[[1-[(4-fluorophenyl)methyl]-1H-benzimidazol-2-yl]amino]-1-piperidinyl]ethyl]formamide] | 0.08 | – |
| COC(CNC(=NC#N)NCCN1CCC(Nc2nc3ccccc3n2Cc2ccc(F)cc2)CC1)OC.O=C(O)/C=C/C(=O)O.O=C(O)/C=C/C(=O)O [Compound 24, N"-cyano-N-(2,2-dimethoxyethyl)-N'-[2-[4-[[1-[(4-fluorophenyl)methyl]-1H-benzimidazol-2-yl]amino]-1-piperidinyl]ethyl]guanidine (E)-2-butenedioate(1:2)] | 0.16 | – |
| CNC(=S)N1CCCC(N2CCC(Nc3nc4ccccc4n3Cc3ccc(F)cc3)CC2)C1 (centres unmarked) [Compound 37, 4-[[1-[(4-fluorophenyl)methyl]-1H-benzimidazol-2-yl]amino]-N-methyl-[1,3'-bipiperidine]-1'-carbothioamide] | 0.08 | – |
| CN(C)C(=NC#N)NCCN1CCC(Nc2nc3ccccc3n2Cc2ccc(F)cc2)CC1 [Compound 25] | 0.08 | – |
| CCOC(=S)NCCN1CCC(Nc2nc3ccccc3n2Cc2ccc(F)cc2)CC1 [Compound 35, ethyl [2-[4-[[1-[(4-fluorophenyl)-methyl]-1H-benzimidazol-2-yl]amino]-1-piperidinyl]ethyl]carbamothioate] | 0.16 | – |
| OCc1ccc(CN2CCC(Nc3nc4ccccc4n3Cc3ccc(F)cc3)CC2)o1 [Compound 47, 5-[[4-[[1-[(4-fluorophenyl)methyl]-1H-benzimdazol-2-yl]amino]-1-piperidinyl]methyl]-2-furanmethanol] | 0.08 | – |
| O=c1oc2ccccc2cc1CCN1CCC(Nc2nc3cccnc3n2Cc2ccccn2)CC1 [Compound 7, 3-[2-[4-[[3-(2-pyridinylmethyl)-3H-imidazo[4,5-b]pyridin-2-yl]amino]-1-piperidinyl]ethyl]-2H-1benzopyran-2-one trihydrochloride.dihydrate] | 0.04 | – |
| N#CN=C(NCCN1CCOCC1)NCCN1CCC(Nc2nc3ccccc3n2Cc2ccc(F)cc2)CC1 [Compound 26, N"-cyano-N-[2-[4-[[1-[(4-fluorophenyl)methyl]-1H-benzimidazol-2-yl]-aminol]-1-piperidinyl]ethyl]-N'-[2-(4-morpholinyl)ethyl]guanidine monohydrate] | 0.16 | – |
| COc1ccc(CCN2CCC(Nc3nc4cnccc4n3Cc3ccc(F)cc3)CC2)cc1 [Compound 3, 1-[(4-fluorophenyl)methyl]-N-[1-[2-(4-methoxyphenyl)ethyl]-4-piperidinyl]-1H-imidazo[4,5-c]pyridin-2-amine] | 0.16 | – |
| O.OCCCNC(=S)NCCN1CCC(Nc2nc3ccccc3n2Cc2ccc(F)cc2)CC1 [Compound 30, N-[2-[4-[[1-[(4-fluorophenyl)methyl]-1H-benzimidazol-2-yl]amino]-1-piperidinyl]ethyl]-N'(3-hydroxypropyl)thiourea monohydrate] | 0.08 | – |
| COc1ccc(CCN2CCC(Nc3nc4ncccc4n3Cc3ccc(F)cc3)CC2)cc1 [Compound 2, 1-[(4-fluorophenyl)methyl]-N-[1-[2-(4-methoxyphenyl)ethyl]-4-piperidinyl]-1H-imidazo[4,5-b]pyridin-2-amine] | 0.08 | – |
| O=c1oc2ccccc2cc1CCN1CCC(Nc2nc3cccnc3n2Cc2ccco2)CC1 [Compound 15, 3-[2-[4-[[3-(2-furanylmethyl)-3H-imidazo[4,5-b]pyridin-2-yl]amino]-1-piperidinyl]ethyl]-2H-1-benzopyran-2-one] | 0.01 | – |

| Compound | ED50 [1] [mg/kg] | ED50 (4 h) [mg/kg] |
| --- | --- | --- |
| CC(=O)Nc1ccccc1C(=O)NCCN1CCC(Nc2nc3ccccc3n2Cc2ccc(F)cc2)CC1 [Compound 51, 2-(acetylamino)-N-[2-[4-[[1-[(4-fluorophenyl)methyl]-1H-benzimidazol-2-yl]amino]-1-piperidinyl]ethyl]benzamide] | 0.16 | – |
| CNC(=O)N1CCC(N2CCC(Nc3nc4ccccc4n3Cc3ccc(F)cc3)CC2)CC1 [Compound 36, 4-[[1-(4-fluorophenyl)methyl]-1H-benzimidazol-2-ylamino]-N-methyl-[1,4'-bipiperidine]-1'-carboxamide monohydrate] | 0.16 | – |
| NNC(=S)NCCN1CCC(Nc2nc3ccccc3n2Cc2ccc(F)cc2)CC1.O [Compound 34, N-[2-[4-[[1-[(4-fluorophenyl)methyl]-1H-benzimidazol-2-yl]amino]-1-piperidinyl]ethyl]hydrazinecarbothioamide monohydrate] | 0.02 | – |
| Br.Br.Oc1ccc(CCN2CCC(Nc3nc4ccccc4n3Cc3cscn3)CC2)cc1 [Compound 59, 4-[2-[4-[[1-(4-thiazolylmethyl)-1H-benzimidazol-2-yl]amino]-1-piperidinyl]ethyl]phenol dihydrobromide] | 0.08 | – |
| O=c1oc2ccccc2cc1CCN1CCC(Nc2nc3ccccc3n2Cc2cccs2)CC1 [Compound 8, 3-[2-[4-[[1-(2-thienylmethyl)-1H-benzimidazol-2-yl]amino]-1-piperidinyl]ethyl]-2H-1-benzopyran-2-one] | 0.16 | – |
| CSC(=NC#N)NCCN1CCC(Nc2nc3cccnc3n2Cc2ccc(F)cc2)CC1 [Compound 21, S-methyl N'-cyano-N-[2-[4-[[3-[(4-fluorophenyl)methyl]-3H-imidazo[4,5-b]pyridin-2-yl]amino]-1-piperidinyl]ethyl]carbamimidothioate] | 0.16 | – |
| O=c1oc2ccccc2cc1CCN1CCC(Nc2nc3ccccc3n2Cc2ccccn2)CC1 [Compound 9, 3-[2-[4-[[1-(2-pyridinylmethyl)-1H-benzimidazol-2-yl]amino]-1-piperidinyl]ethyl]-2H-1-benzopyran-2-one dihydrochloride.dihydrate] | 0.08 | – |
| N=C(NCCN1CCC(Nc2nc3ccccc3n2Cc2ccc(F)cc2)CC1)N[N+](=O)[O-] [Compound 23, N-[2-[4-[[1-[(4-fluorophenyl)methyl]-1H-benzimidazol-2-yl]amino]-1-piperidinyl]ethyl]-N'-nitroguanidine] | – | 0.08 |
| O.O=c1oc2ccccc2cc1CCN1CCC(Nc2nc3cccnc3n2Cc2ccc(F)cc2)CC1 [Compound 16, 3-[2-[4-[[3-[(4-fluorophenyl)methyl]-3H-imidazo [4,5-b]pyridin-2-yl]-amino]-1-piperidinyl]ethyl]-2H-1-benzopyran-2-one monohydrate] | 0.04 | – |
| CCN(CC)C(=S)NCCN1CCC(Nc2nc3ccccc3n2Cc2ccc(F)cc2)CC1 [Compound 32, N,N-diethyl-N'-[2-[4-[[1-[(4-fluorophenyl)methyl]-1H-benzimidazol-2-yl]-amino]-1-piperidinyl]ethyl]thiourea] | 0.16 | – |
| O=c1oc2ccccc2cc1CCN1CCC(Nc2nc3ccccc3n2Cc2ccc(F)cc2)CC1 [Compound 12, 3-[2-[4-[[1-[(4-fluorophenyl)methyl]-1H-benzimidazol-2-yl]amino]-1-piperidinyl]ethyl]-2H-1-benzopyran-2-one] | 0.16 | – |
| COc1ccc(CCN2CCC(Nc3nc4ccccc4n3Cc3cnccn3)CC2)cc1 [Compound 13, N-[1-[2:(4-methoxyphenyl)ethyl]-4-piperidinyl]-1-[(2-pyrazinyl)methyl]-1H-benzimidazol-2-amine] | 0.04 | – |
| Fc1ccc(Cn2c(NC3CCN(CCNC(=S)N4CCOCC4)CC3)nc3ccccc32)cc1 [Compound 28, N-[2-[4-[[1-[(4-fluorophenyl)methyl]-1H-benzimidazol-2-yl]amino]-1-piperidinyl]ethyl]-4-morpholinecarbothioamide] | 0.16 | – |
| O.O=c1oc2ccccc2cc1CCN1CCC(Nc2nc3ccccc3n2Cc2ccco2)CC1 [Compound 14, 3-[2-[4-[[1-(2-furanylmethyl)-1H-benzimidazol-2-yl]amino]-1-piperidinyl]ethyl]-2H-1-benzopyran-2-one monohydrate] | 0.08 | – |
| NC(=O)Nc1ccc(CCN2CCC(Nc3nc4ccccc4n3Cc3ccc(F)cc3)CC2)cc1 [Compound 56] | 0.04 | – |
| O=CNCCN1CCC(Nc2nc3ccccc3n2Cc2ccco2)CC1 [Compound 46, N-[2-[4-[[1-(2-furanylmethyl)-1H-benzimidazol-2-yl]amino]-1-piperidinyl]ethyl]formamide hemihydrate] | 0.16 | – |
